Assay results taken from patent US11739053B2, “P62-ZZ chemical inhibitor” (ID4PHARMA, LLC, priority 2011, dated 2023).

What was measured:
[1] = system: IL-6 production; assay: TNF-α induced IL-6 production by marrow stromal cells, ELISA; type: cell-based, human; details: normal human stromal cells, FIG. 5B
Procedure: FIG. 5A-B: 5A. VCAM-1 expression using Western blot analysis. Normal human stromal cells were cultured with/without TNF and p62-ZZ inhibitors (#1-6) for 48 hours. The cell lysates were collected and VCAM-1 expression was measured using an anti-VCAM-1 antibody (Santa Cruz). FIG. 5B. IL-6 production by human and mouse marrow stromal cells by ELISA. Normal human and mouse marrow stromal cells were cultured with/without TNFα and p62-ZZ inhibitors (#1-6) for 48 hours. The cell culture media were collected and IL-6 production measured using an IL-6 ELISA kit (R &D). Data are shown as the means (n=2).
Normal human or mouse marrow stromal cells were maintained in 10% FBS-IMDM and treated with p62-ZZ inhibitors (#1-6) for 3 hours. Then TNFα or vehicle was added for 48 hours. Cell lysates were collected and VCAM-1 expression measured by Western blot using an anti-VCAM-1 antibody (Santa Cruz). The culture media were collected and IL-6 production was measured using an IL-6 ELISA kit (R&D Company).

[2] = system: GFP-labeled human myeloma MM1.S cells; assay: GFP-labeled MM1.S myeloma cell growth with/without stromal cells, fluorescence microscopy; type: cell-based; details: 10 μM, 72 hours, FIG. 3
Procedure: FIG. 3 is a graph depicting MM cell growth inhibition. Data is shown as the mean±SD (n=5). *: P<0.01 compared to no-inhibitor cultures without stromal cells. **: P<0.01 compared to no-treatment co-cultured with stromal cells.
Compound 3 was tested for its capacity to block MM-stimulated signaling in marrow stromal cells, thereby resulting in less bone destruction and MM growth. The effects of the compound 3 on GFP-labeled MM1.S myeloma cell growth with/without stromal cells, IL-6 and VCAM-1 expression on stromal cells induced by TNF-α and OCL formation, and TNF-α induced PKCζ phosphorylation, the specific kinase enzyme activated p62-ZZ, were examined. GFP-labeled MM1.S myeloma cells or normal human CFU-GM, a source of OCL precursors, were then co-cultured with human stromal cells with the p62-ZZ inhibitor. The 10 μM of inhibitor compound 3 blocked MM cell growth by 90% compared to vehicle (0.1% DMSO). […] VCAM-1 expression and IL-6 production induced by TNF-α on stromal cells was blocked by 30% and 90% respectively compared to vehicle levels. Furthermore, TNF-α induced PKC, phosphorylation blocked was in stromal cells and MM1.S when pre-treated with this p62-ZZ inhibitory compound for 3 hours.
Primary human bone marrow stromal cells were maintained in 10% FCS-IMDM. Stromal cells (1.5×10^3 cells/well) were cultured one day prior to the start of co-culture. Green fluorescent protein (GFP)-labeled human myeloma MM1.S cells (7.5×10^3 cells/well) were then cultured with/without stromal cells in the presence or absence of the p62-ZZ inhibitors (#1-6) for 72 hours. MM cell growth was determined by fluorescence microscopy.

SMILES	IL-6 production by TNF-α stimulated normal human stromal cells (result in words) [1]	MM cell growth (result in words) [2]
CCOc1ccccc1/C=N/Nc1ccc(S(=O)(=O)c2ccc(N/N=C/c3ccccc3OCC)cc2)cc1 [Compound 5]	blocked IL-6 production	–
OC[C@@H](O)[C@@H](O)[C@H](O)[C@H](O)C(/C=N/Nc1ccccc1)=N/Nc1ccccc1 [Compound 2]	blocked IL-6 production	directly blocked MM cell growth
O=C(O)CNC(=O)c1ccc(NCc2oc(CO)c(CNc3ccc(C(=O)NCC(=O)O)cc3)c(=O)c2O)cc1 [Compound 4]	–	directly blocked MM cell growth
